Like-named read-outs stand apart in the source and are kept apart here.
What was measured:
Assay type in all cases: biochemical
full-length WRN helicase [1] = target: T1, full-length WRN helicase (Homo sapiens, UniProt Q14191); test: Radiometric helicase inhibitor assay, full-length WRN unwinding of FORKR DNA substrate; conditions: for remaining activity at 50 µM: read-out: % Control WRN Helicase Activity; for IC50: radiometric assay, compound 0-100 μM, read-out: IC50;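 on all read-outs here: WRN preincubated with compound 15 min at room temperature, then unwinding run 15 min at 37 °C with 2 mM ATP, relative to WRN unwinding without compound (100%)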
T1 construct: Full length recombinant WRN [18], BLM [19], and FANCJ [20] proteins were purified from insect cells; made in house; host or cells: insect cells
T1 sequence (Q14191 whole entry): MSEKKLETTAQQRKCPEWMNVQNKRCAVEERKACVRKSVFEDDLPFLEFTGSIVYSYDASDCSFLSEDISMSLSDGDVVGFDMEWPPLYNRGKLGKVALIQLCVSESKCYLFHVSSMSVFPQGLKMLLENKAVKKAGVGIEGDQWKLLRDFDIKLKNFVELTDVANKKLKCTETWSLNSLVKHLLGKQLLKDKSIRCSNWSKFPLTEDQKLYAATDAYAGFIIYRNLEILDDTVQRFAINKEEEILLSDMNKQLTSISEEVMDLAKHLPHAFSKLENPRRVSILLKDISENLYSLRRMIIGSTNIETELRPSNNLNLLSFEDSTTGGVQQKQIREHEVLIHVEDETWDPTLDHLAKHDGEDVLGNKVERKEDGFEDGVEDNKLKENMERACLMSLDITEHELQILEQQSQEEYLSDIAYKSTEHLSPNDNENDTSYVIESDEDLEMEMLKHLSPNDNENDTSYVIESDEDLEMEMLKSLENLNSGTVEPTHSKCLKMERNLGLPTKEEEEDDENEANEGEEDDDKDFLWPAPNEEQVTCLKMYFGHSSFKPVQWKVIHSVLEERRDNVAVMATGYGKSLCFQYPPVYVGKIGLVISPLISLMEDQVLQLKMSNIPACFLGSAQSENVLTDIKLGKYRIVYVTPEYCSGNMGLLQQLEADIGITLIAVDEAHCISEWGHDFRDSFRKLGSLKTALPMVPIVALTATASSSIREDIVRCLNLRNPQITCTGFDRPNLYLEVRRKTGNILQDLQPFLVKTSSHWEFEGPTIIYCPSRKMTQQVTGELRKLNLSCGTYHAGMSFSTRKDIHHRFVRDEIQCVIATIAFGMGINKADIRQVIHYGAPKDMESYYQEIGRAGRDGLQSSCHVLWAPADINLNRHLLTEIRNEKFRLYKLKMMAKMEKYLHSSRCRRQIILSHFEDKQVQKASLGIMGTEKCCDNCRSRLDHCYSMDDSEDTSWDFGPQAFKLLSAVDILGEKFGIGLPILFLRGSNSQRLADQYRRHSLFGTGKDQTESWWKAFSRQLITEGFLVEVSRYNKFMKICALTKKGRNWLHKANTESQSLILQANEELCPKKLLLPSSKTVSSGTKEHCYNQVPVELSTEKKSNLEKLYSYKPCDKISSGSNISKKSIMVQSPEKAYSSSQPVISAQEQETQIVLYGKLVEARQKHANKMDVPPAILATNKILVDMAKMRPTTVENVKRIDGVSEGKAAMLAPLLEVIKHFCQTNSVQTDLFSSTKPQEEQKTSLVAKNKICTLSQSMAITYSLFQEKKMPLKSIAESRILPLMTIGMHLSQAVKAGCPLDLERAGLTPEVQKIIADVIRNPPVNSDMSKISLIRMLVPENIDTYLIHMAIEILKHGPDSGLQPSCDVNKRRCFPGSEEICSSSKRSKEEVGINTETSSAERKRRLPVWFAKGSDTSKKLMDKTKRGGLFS
Procedure: Fifteen μL of reaction buffer was added to a microcentrifuge tube followed by the addition of 1 μL of selected compounds (0.5–100 μM final concentration) or DMSO. One μL of WRN (full length), RECQ1, FANCJ, BLM or control was added to each reaction and incubated at room temperature for 15 min. Three μL of substrate (0.5 nM FORKR and 2 mM ATP final concentrations) were added to all reactions which were incubated at 37°C for 15 min. Reactions were stopped with the addition of 20 μL of 2X STOP dye containing EDTA, glycerol, bromphenol blue and xylene cyanol. Samples were electrophoresed for 1.5 hr at 200 V on a 12% non-denaturing PAGE gel in 1X TBE Buffer.
The compounds were tested at a single concentration of 50 μM in the radiometric helicase assay with full-length recombinant WRN protein (1 nM) and the FORKR DNA substrate (0.5 nM) as described in the Materials and Methods section.
For each compound, we performed titrations over a wide range of concentrations with a fixed concentration of full-length WRN protein (1 nM), and quantitated unwinding as a percentage of full-length WRN unwinding of the FORKR DNA substrate (0.5 nM) in the absence of compound (Fig 6A and 6B, S3 Fig). […] In addition to determining an IC50 value for each compound, we also conducted helicase assays to determine the reversibility of inhibition by each compound tested. […] The reaction was diluted 100-fold with the addition of DNA substrate (0.5 nM final concentration) and ATP (2 mM final concentration) and unwinding was measured (Fig 7A–7D, S4 Fig). Inhibition was either classified as reversible, partially reversible, minimally reversible, or irreversible based on the ability of helicase activity to recover after dilution of the compound 100-fold.

[2] = target: T2, GST-WRN500-946 helicase domain fragment (Homo sapiens, UniProt Q14191); test: High-throughput fluorometric helicase screen, PubChem AID 651768; conditions: initial qHTS; 20 nM GST-WRN500-946; 100 nM FORKF; NA = Not Active; read-out: IC50 (μM) Assay ID 651768
T2 construct: made in house; host or cells: insect cells
T2 sequence (Q14191 500-946): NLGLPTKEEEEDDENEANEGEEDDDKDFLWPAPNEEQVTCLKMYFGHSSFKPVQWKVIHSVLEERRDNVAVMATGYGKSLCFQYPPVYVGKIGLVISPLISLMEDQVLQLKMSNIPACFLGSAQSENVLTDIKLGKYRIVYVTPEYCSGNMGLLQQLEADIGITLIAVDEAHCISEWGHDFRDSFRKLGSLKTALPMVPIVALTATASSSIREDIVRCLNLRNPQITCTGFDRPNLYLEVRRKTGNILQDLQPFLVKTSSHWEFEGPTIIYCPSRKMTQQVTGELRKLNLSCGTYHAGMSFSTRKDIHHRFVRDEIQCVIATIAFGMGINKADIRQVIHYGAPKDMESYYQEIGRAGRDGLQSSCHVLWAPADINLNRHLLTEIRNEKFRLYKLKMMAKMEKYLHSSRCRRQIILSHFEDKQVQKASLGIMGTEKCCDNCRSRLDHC
Procedure: (§1) The structures of the members of this collection are available in the PubChem portal https://pubchem.ncbi.nlm.nih.gov/. For both the 350,000 small molecule collection and the LOPAC^1280 screens, 3 μL of GST-WRN500-946 or reaction buffer only were dispensed using a solenoid-valve nanoliter dispenser into a black 1536-well plate (Greiner). Twenty three nL of each serially diluted compound (0.08–50 μM for the LOPAC screen and 0.003–114 μM for the larger library screen) or control were added to each well using a Kalypsys pintool equipped with a 1536-pin array. Plates were incubated at room temperature for 15 min, followed by initiation of the reactions via the addition of 1 μL of substrate (100 nM FORKF and 2 mM ATP final concentrations). Plates were transferred to a ViewLux high-throughput CCD imager and fluorescence was measured in kinetic mode using an excitation filter of 525 nm and emission filter of 598 nm.
(§2) Zʹ factor, a measure for assay quality control was calculated using the formula Z′ = 1−(3σS^++3σS^−)∕|μS^+−μS^−| as described previously. In this formula, 3σS^+ represents 3 standard deviations from the mean of positive signals while 3σS^− represents 3 standard deviations from the mean of negative signals. μS^+ and μS^− represent the mean of positive signals and negative signals respectively. Percent activity was derived using in-house software (http://tripod.nih.gov/curvefit/). Dose-response curves were classified as described previously.
(§3) A collection of approximately 350,000 compounds is available for screening which has been assembled from multiple sources to provide diverse chemical scaffolds with known purity, identity and solubility. To perform the high-throughput screen of these compounds, we needed to produce approximately 50 milligrams of recombinant WRN helicase fragment. To accomplish this, we cloned the helicase domain fragment into several plasmids for either insect cell or bacterial expression to optimize expression and yield. We selected expression plasmids for insect cell expression with either a GST or MBP tag (image A in S1 Fig) and purified the protein (image B in S1 Fig). The GST-WRN500-946 fragment isolated from insect cells was used in the high throughput screen with the conditions described in Fig 2C (20 nM GST-WRN500-946, 100 nM FORKF DNA substrate) and a summary of the results can be found on PubChem (National Center for Biotechnology Information. PubChem BioAssay Database; Assay Identifier (AID) = 651768, https://pubchem.ncbi.nlm.nih.gov/bioassay/651768). […] To verify the active compounds, approximately 600 hit molecules were retested in a confirmatory screen also found on PubChem (National Center for Biotechnology Information. PubChem AID = 720497, https://pubchem.ncbi.nlm.nih.gov/bioassay/720497). Of these, a little less than four hundred compounds were confirmed as active compounds.

full-length WRN helicase [3] = target: T1, full-length WRN helicase; test: Radiometric helicase inhibitor reversibility assay (100-fold dilution); design: key to Reversibility: (-) = irreversible; (+) = minimally reversible; (++) = partially reversible; (+++) = reversible; conditions: for Reversibility: WRN 100 nM preincubated at 10-fold IC50, diluted 100-fold, unwinding 0-16 min; for Reversibility of inhibition (in words): full-length WRN
Procedure: WRN (full length, 100 nM concentration) was incubated with each small molecule inhibitor at a concentration 10-fold higher than the IC50 for that inhibitor, in a 10 μL reaction at room temperature. 1.5 μL of this reaction was added to 148.5 μL of reaction salts with 2 mM ATP, 0.5 nM FORKR reducing the full length WRN concentration to 1 nM and the drug concentration to 10-fold less than its IC50. Reactions were placed at 37°C and 20 μL of reaction were removed at specific intervals (0–16 min) and quenched with 20 μL of 2X STOP dye containing EDTA, glycerol, bromphenol blue and xylene cyanol. Samples were electrophoresed for 1.5 hr at 200 V on a 12% non-denaturing PAGE gel in 1X TBE Buffer.
Eighteen compounds were selected based on potency of inhibition in both the screening and radiometric assays, and exclusion of compounds with undesired chemical features. For each compound, we performed titrations over a wide range of concentrations with a fixed concentration of full-length WRN protein (1 nM), and quantitated unwinding as a percentage of full-length WRN unwinding of the FORKR DNA substrate (0.5 nM) in the absence of compound (Fig 6A and 6B, S3 Fig). […] In addition to determining an IC50 value for each compound, we also conducted helicase assays to determine the reversibility of inhibition by each compound tested. Details of the assay can be found in the Materials and Methods section, but briefly 100 nM WRN was incubated with each compound at a concentration 10-fold higher than its IC50 value. The reaction was diluted 100-fold with the addition of DNA substrate (0.5 nM final concentration) and ATP (2 mM final concentration) and unwinding was measured (Fig 7A–7D, S4 Fig). Inhibition was either classified as reversible, partially reversible, minimally reversible, or irreversible based on the ability of helicase activity to recover after dilution of the compound 100-fold. Table 2 summarizes the IC50 values and reversibility for each compound and includes IC50 values obtained from the screens for comparison.

[4] = target: T2, GST-WRN500-946 helicase domain fragment; test: Confirmatory fluorometric helicase screen, PubChem AID 720497; conditions: 20 nM GST-WRN500-946, 100 nM FORKF, NA = Not Active, read-out: IC50 (μM) Assay ID 720497
Procedure: as §1, §2, §3

[5] = target: T3, WRN helicase domain fragment (Homo sapiens, UniProt Q14191); test: WRN-hel-f2 protocol qHTS confirmatory (15 compound confirmatory assay); conditions: NA = Not Active
T3 construct: GST (N); made in house
T3 sequence (Q14191 500-946): as above
Procedure: as §1

[6] = 50 μM compound, full-length WRN 1 nM, FORKR 0.5 nM
[7] = full-length WRN 1 nM, FORKR 0.5 nM

remaining activity at 50 µM (full-length WRN helicase [1]; [6]) [%] | IC50 [2] [µM] | Reversibility (full-length WRN helicase [3]) | IC50 (full-length WRN helicase [1]; [7]) [µM] | IC50 [4] [µM] | IC50 [5] [µM] | SMILES | remaining activity at 50 µM (full-length WRN helicase [1]) [%] | Reversibility of inhibition (in words) (full-length WRN helicase [3])
100 |  |  |  |  |  | Cc1nn(-c2ccccc2)c2nc(-c3ccco3)cc(C(=O)O)c12 [MLS000060726-02] |  | 
99 |  |  |  |  |  | O=c1[nH]c2ccccc2n2c(-c3ccccc3)nnc12 [MLS000540817-03] |  | 
92 |  |  |  |  |  | Oc1ccc(C2=CSc3nnc(-c4ccco4)n3N2)cc1O [MLS000551562-03] |  | 
64 |  |  |  |  |  | Cc1cc(OCC(=O)Nc2ccc(N3CCN(C(=O)c4ccco4)CC3)cc2)cc(C)c1Cl [MLS000582679-02] |  | 
76 |  |  |  |  |  | O=C(O)c1ccccc1-c1ccc(/C=C/c2cc(C(F)(F)F)nc(O)n2)o1 [MLS000715904-02] |  | 
4 | 4.7 | - | 10 | 4.3 | 0.35 | O=C(c1cccc(-n2cccc2)c1)N1CCN(S(=O)(=O)c2ccccc2)CC1 [MLS001139594-03] |  | 
8 | 44.6 | + | 11 | 9.6 | 22.4 | Cc1ccc(CN(C)C(=O)CCc2nc(O)c3c4c(sc3n2)CCCC4)o1 [MLS001160745-02] |  | 
5 |  |  |  |  |  | Cc1ccc(C)c(NC(=O)CN(C)C(=O)c2cccc(-n3cccc3)c2)c1 [MLS001161412-02] |  | 
93 |  |  |  |  |  | CCc1nnc(NC(=O)c2cc(-c3ccc(C)o3)nc3ccccc23)s1 [MLS002179845-02] |  | 
69 |  |  |  |  |  | O=C(Nc1nncs1)c1cc(-c2ccco2)nc2ccccc12 [MLS002249549-02] |  | 
3 | 2.7 | +++ | 2 | 6.1 | 0.35 | COc1ccccc1Nc1ccc2c(O)cc(S(=O)(=O)O)cc2c1 [MLS002608028-02] |  | 
 |  |  |  |  |  | CN(C)CC(C(=O)Cc1ccccc1)c1ccccc1 (centres unmarked) [MLS002608145-02] | 93 | 
0 |  |  |  |  |  | Oc1c(C(c2ccccc2)N2CCOCC2)ccc2ccccc12 (centres unmarked) [MLS002694128-02] |  | 
109 |  |  |  |  |  | CCCN(CCC)CCCNC(=O)c1cc2c(-c3ccc(OC)c(OC)c3)nn(C)c2s1 [NCGC00108865-03] |  | 
10 | 16.8 | + | 2 | 13.6 | 1.26 | COC(=O)c1cc(NC(=O)c2ccc3c(c2)NC(=O)c2ccccc2S3)cc(C(=O)OC)c1 [NCGC00113056-02] |  | 
65 |  |  |  |  |  | Cc1cc(OC(C)C(=O)Nc2cccc(-c3nc4ccccc4o3)c2)cc(C)c1Cl (centres unmarked) [NCGC00119189-02] |  | 
13 | 39.8 | - | 15 |  | 12.5 | CN(Cc1ccco1)[S+](=O)([O-])c1nnc(NC(=O)c2cccc(Cl)c2)s1 [NCGC00120928-02] |  | irreversible
5 | 50.1 | +++ | 5 |  | 28.1 | CC(C)(C)c1ccc(-c2nc(SCCCOc3ccccc3)n3[nH]c(=O)cc3n2)cc1 [NCGC00128735-02] |  | 
20 | 21.1 | ++ | 10 | 15.2 | 1.8 | CCOc1ccc(-c2nc(SCC(=O)Nc3ccc(C)c(C)c3)n3[nH]c(=O)cc3n2)cc1 [NCGC00128865-02] |  | 
7 | 16.8 | - | 9 | 13.6 | 12.5 | Cc1ccc(-c2nc(SCc3ccc(Br)cc3)n3[nH]c(=O)cc3n2)cc1 [NCGC00129037-02] |  | 
30 | 11.9 | - | 25 | 7.6 |  | CC1=C(C(=O)Nc2ccccc2)C(c2ccc[nH]2)n2ncnc2N1 (centres unmarked) [NCGC00132363-04] |  | 
113 |  |  |  |  |  | COc1ccccc1N1CCN(C(=O)Cc2c(C(=O)O)c(C)cn2C)CC1 [NCGC00137902-02] |  | 
108 |  |  |  |  |  | Cc1cn(C)c(CC(=O)N2CCN(c3ccccc3F)CC2)c1C(=O)O [NCGC00137904-02] |  | 
99 |  |  |  |  |  | COc1ccc(N2CCN(C(=O)Cc3c(C(=O)O)c(C)cn3C)CC2)cc1 [NCGC00137930-02] |  | 
0 | 7.5 | - | 5 | 6.1 | 6 | O=c1cc(N2CCNCC2)nc2sc(-c3ccncc3)nn12 [NCGC00183602-01] |  | 
9 | 35.4 | +++ | 10 |  | 25.1 | Cc1ccc(N2CCN(c3cnn(-c4nc5ccccc5s4)c(=O)c3Cl)CC2C)cc1 (centres unmarked) [NCGC00295201-02] |  | 
42 |  |  |  |  |  | COc1ccc2nc(O)c(-c3noc(-c4cccs4)n3)cc2c1 [NCGC00307457-02] |  | 
 |  |  |  |  |  | COc1ccc(-c2cc(C(F)(F)F)nc([S+](=O)([O-])CCC(=O)Nc3ccc(C)cc3)n2)cc1 [NCGC00317517-02] | 93 | 
 |  |  |  |  |  | COc1ccc(N[S+](=O)([O-])c2cc(C(=O)Nc3ccc4nc(C)sc4c3)ccc2C)cc1 [NCGC00348187-01] | 83 | 

SMILES | remaining activity at 50 µM (full-length WRN helicase [1]; [6]) [%] | IC50 [2] [µM] | Reversibility (full-length WRN helicase [3]) | IC50 (full-length WRN helicase [1]; [7]) [µM] | IC50 [4] [µM] | IC50 [5] [µM] | remaining activity at 50 µM (full-length WRN helicase [1]) [%] | Reversibility of inhibition (in words) (full-length WRN helicase [3])
Cc1ccc(C(=O)Nc2nnc([S+](=O)([O-])N(C)Cc3ccco3)s2)cc1 [NCGC00120906-02] |  | 37.6 | - | 9 |  | 5.6 | 33 | irreversible
CCc1ccc(NC(=O)c2ccc3c(O)c([S+](=O)([O-])c4ccc(Cl)cc4)c(=O)[nH]c3c2)cc1 [NCGC00123016-02] |  | 26.6 | +++ | 50 |  | 39.8 | 20 | 

Reference: publication PMC6326523, “A high-throughput screen to identify novel small molecule inhibitors of the Werner Syndrome Helicase-Nuclease (WRN)” (PLoS ONE, 2019)
